Test results reported in BigSolDB 2.1.

COC(=O)CC[C@H](N)C(=O)O
solubility (mole fraction)
Settings	283.15 K	288.15 K	293.15 K	298.15 K	303.15 K	308.15 K	313.15 K	318.15 K	323.15 K
in acetone	5.18e-05	9.7e-05	0.000148	0.000221	0.000292	0.000377	0.000438	0.000516	0.000572
in ethanol	0.000116	0.000147	0.000177	0.000212	0.000245	0.000272	0.000307	0.000348	0.000383
in isopropanol	8.34e-05	0.000104	0.000124	0.000144	0.000166	0.000196	0.000217	0.000245	0.000272
in methanol	0.00115	0.00122	0.0013	0.00138	0.00145	0.00152	0.00161	0.0017	0.00179
in n-propanol	1.38e-05	4.22e-05	7.7e-05	0.000116	0.000154	0.000208	0.000246	0.000289	0.000336
in water	0.0337	0.036	0.0394	0.0426	0.0457	0.0489	0.0523	0.0565	0.0608
